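Results reflect a 48-hour exposure of cells in 96-well plates to compound at five concentrations. The concentration for 50% growth inhibition is given as GI50. TGI: total growth inhibition.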
Legend:
Assay in all cases: NCI anticancer screen, dose series, 48 h
[1] = system: SR leukemia
[2] = system: NCI-H226 lung
[3] = system: SK-MEL-28 melanoma
[4] = system: IGROV1 ovarian
[5] = system: SW-620 colon
[6] = system: HT29 colon
[7] = system: MCF7 breast
[8] = system: SN12C renal
[9] = system: 786-0 renal
[10] = system: SK-OV-3 ovarian
[11] = system: U251 CNS
[12] = system: LOX IMVI melanoma
[13] = system: HOP-92 NSCLC
[14] = system: SF-268 CNS
[15] = system: UACC-62 melanoma
[16] = system: MALME-3M melanoma
[17] = system: NCI-H522 lung
[18] = system: OVCAR-3 ovarian
[19] = system: SK-MEL-5 melanoma
[20] = system: DU-145 prostate
[21] = system: MOLT-4 leukemia
[22] = system: HOP-62 NSCLC
[23] = system: CAKI-1 renal
[24] = system: RPMI-8226 leukemia
[25] = system: HS 578T breast
[26] = system: HCC-2998 colon
[27] = system: OVCAR-5 ovarian
[28] = system: UO-31 renal
[29] = system: KM12 colon
[30] = system: NCI-H460 lung
[31] = system: A498 renal
[32] = system: SF-295 CNS
[33] = system: EKVX NSCLC
[34] = system: OVCAR-4 ovarian
[35] = system: T-47D breast
[36] = system: COLO 205 colon
[37] = system: HL-60(TB) leukemia
[38] = system: M14 melanoma
[39] = system: MDA-MB-435
[40] = system: A549 NSCLC
[41] = system: ACHN renal
[42] = system: SNB-75 CNS
[43] = system: MDA-MB-231 breast
[44] = system: SNB-19 CNS
[45] = system: HCT-15 colon
[46] = system: K-562 leukemia
[47] = system: TK-10 renal
[48] = system: OVCAR-8 ovarian
[49] = system: SF-539 CNS
[50] = system: NCI/ADR-RES ovarian
[51] = system: BT-549 breast
[52] = system: CCRF-CEM leukemia
[53] = system: SK-MEL-2 melanoma
[54] = system: NCI-H23 lung
[55] = system: PC-3 prostate
[56] = system: RXF 393 renal
[57] = system: HCT-116 colon

`C[C@@H]1C[N+]2([O-])[C@H]3C4=CCC[C@@H]4CC[C@H]3[C@@]3(C)OC(=O)CC[C@]34CC[C@H]1[C@@H]42` (some centres undefined) showed a GI50 [1] of over 60 µM, a TGI [1] of over 60 µM and a GI50 [2] of over 60 µM. The TGI [2] was over 60 µM, the GI50 [3] was over 60 µM and the TGI [3] was over 60 µM. It also gave a GI50 [4] of over 60 µM, a TGI [4] of over 60 µM and a GI50 [5] of over 60 µM. It also gave a TGI [5] of over 60 µM, a GI50 [6] of over 60 µM and a TGI [6] of over 60 µM. The GI50 [7] was over 60 µM, the TGI [7] was over 60 µM and the GI50 [8] was over 60 µM. It also gave a TGI [8] of over 60 µM, a GI50 [9] of over 60 µM and a TGI [9] of over 60 µM. The GI50 [10] was over 60 µM, the TGI [10] was over 60 µM and the GI50 [11] was over 60 µM. The TGI [11] was over 60 µM, the GI50 [12] was over 60 µM and the TGI [12] was over 60 µM. For the same compound, the GI50 [13] was over 60 µM, the TGI [13] was over 60 µM and the GI50 [14] was over 60 µM. It also gave a TGI [14] of over 60 µM, a GI50 [15] of over 60 µM and a TGI [15] of over 60 µM. The GI50 [16] was over 60 µM, the TGI [16] was over 60 µM and the GI50 [17] was over 60 µM. It also gave a TGI [17] of over 60 µM, a GI50 [18] of over 60 µM and a TGI [18] of over 60 µM. For the same compound, the GI50 [19] was over 60 µM, the TGI [19] was over 60 µM and the GI50 [20] was over 60 µM. The TGI [20] was over 60 µM, the GI50 [21] was over 60 µM and the TGI [21] was over 60 µM. The GI50 [22] was over 60 µM, the TGI [22] was over 60 µM and the GI50 [23] was over 60 µM. For the same compound, the TGI [23] was over 60 µM, the GI50 [24] was over 60 µM and the TGI [24] was over 60 µM. For the same compound, the GI50 [25] was over 60 µM, the TGI [25] was over 60 µM and the GI50 [26] was over 60 µM. It also gave a TGI [26] of over 60 µM, a GI50 [27] of over 60 µM and a TGI [27] of over 60 µM. The GI50 [28] was over 60 µM, the TGI [28] was over 60 µM and the GI50 [29] was over 60 µM. It also gave a TGI [29] of over 60 µM, a GI50 [30] of over 60 µM and a TGI [30] of over 60 µM. The GI50 [31] was over 60 µM, the TGI [31] was over 60 µM and the GI50 [32] was over 60 µM. The TGI [32] was over 60 µM, the GI50 [33] was over 60 µM and the TGI [33] was over 60 µM. The GI50 [34] was over 60 µM, the TGI [34] was over 60 µM and the GI50 [35] was over 60 µM. For the same compound, the TGI [35] was over 60 µM, the GI50 [36] was over 60 µM and the TGI [36] was over 60 µM. For the same compound, the GI50 [37] was over 60 µM, the TGI [37] was over 60 µM and the GI50 [38] was over 60 µM. The TGI [38] was over 60 µM, the GI50 [39] was over 60 µM and the TGI [39] was over 60 µM. It also gave a GI50 [40] of over 60 µM, a TGI [40] of over 60 µM and a GI50 [41] of over 60 µM. For the same compound, the TGI [41] was over 60 µM, the GI50 [42] was over 60 µM and the TGI [42] was over 60 µM. The GI50 [43] was over 60 µM, the TGI [43] was over 60 µM and the GI50 [44] was over 60 µM. It also gave a TGI [44] of over 60 µM, a GI50 [45] of over 60 µM and a TGI [45] of over 60 µM. For the same compound, the GI50 [46] was over 60 µM, the TGI [46] was over 60 µM and the GI50 [47] was over 60 µM. For the same compound, the TGI [47] was over 60 µM, the GI50 [48] was over 60 µM and the TGI [48] was over 60 µM. The GI50 [49] was over 60 µM, the TGI [49] was over 60 µM and the GI50 [50] was over 60 µM. The TGI [50] was over 60 µM, the GI50 [51] was over 60 µM and the TGI [51] was over 60 µM. The GI50 [52] was over 60 µM, the TGI [52] was over 60 µM and the GI50 [53] was over 60 µM. For the same compound, the TGI [53] was over 60 µM, the GI50 [54] was over 60 µM and the TGI [54] was over 60 µM. For the same compound, the GI50 [55] was over 60 µM, the TGI [55] was over 60 µM and the GI50 [56] was over 60 µM. It also gave a TGI [56] of over 60 µM, a GI50 [57] of over 60 µM and a TGI [57] of over 60 µM.

— PubChem BioAssay (NCI)
